Results from patent US9375450B2, “Vaginal tissue rejuvenation compositions and methods” (priority 2011, dated 2016).

How the values were obtained:
Format in all cases: cell-based, human
[1] = test system: primary vaginal smooth muscle cells; assay: MTT proliferation assay; details: mean±SD
Procedure: (§1) After removal of the uterus, full-thickness samples of the anterior vaginal wall were obtained from the vaginal cuff at the anterior midline portion under sterile condition from four women without POP. Specimens were preserved in cold DMEM/F12 (Invitrogen, Carlsbad, Calif.) supplemented with 10% FBS, 1 mM glutamine, 0.075% Na2HCO3 and 100 ug/ml penicillin-streptomycin. After a maximum time of 4 hours from tissue harvesting the tissue was mechanically minced in cold cultured media and the fragments were washed 3 times in PBS and were plated onto fibronectin coated plastic dishes (Thermo Fischer Scientific, Rochester, N.Y.). After the initial outgrowth, clones with a morphology resembling the smooth muscle phenotype were patch cloned and propagated in culture. For cell characterization a 5000 cell/well fibronectin coated 8-well chamber slide was plated. Once cell confluence reached 80% the cells were washed twice with PBS and fixed in 4% PFA for 30 min at 37° C. To verify the intracytoplasmic distribution of F-actin fibers 4% PFA fixed cells were exposed to a permeabilizing solution of Tryton X100 0.1% and Rhodamine Phalloidin for 45 min at 37° C. Slides were then treated with mounting media (Vectashield, Vector Laboratories, Burlingame, Calif.) containing DAPI for nucleic acid staining and image acquisition was performed in glycerol immersion by confocal microscopy. In addition, the 8-well chamber slides were used to carry out the immunocytochemical staining. After blockage of endogenous peroxidase activity with a solution of hydrogen peroxide and methanol, slides were sequentially treated with the primary mouse antibody, biotinylated anti-mouse immunoglobulin, and Streptavidin-biotin-peroxidase complex (LSAB™+/HRP kit, Dako, Carpinteria, Calif.). Diaminobenzidine was used as a chromogen in the presence of hydrogen peroxide. Slides were then counterstained with hematoxylin. All reactions were carried out at room temperature (22° C.). To identify the SMC, anti-smooth muscle actin antibodies were used (monoclonal mouse, 1:250, 30 min incubation, clone 1A4, catalog #0851 Dako, Carpinteria, Calif.). Caldesmon expression was studied with a monoclonal mouse antibody, 1:100, 30 min incubation, (clone h-CD catalog #M3557 Dako, Carpinteria, Calif.). An antigen retrieval step was used for caldesmon using citrate buffer and a steamer for 30 min. As a negative control normal mouse serum was substituted for the antibody.
To perform the MTT proliferation assay, SMC from the fourth to sixth passages (5,000 cells per well) were cultured in 96-well culture plates (Costar, Cambridge, Mass.), in a total volume of 200 μL DMEM/F-12 with 10% FBS. Cells were incubated with zinc sulfate heptahydrate (Sigma, Saint Louis, Mo.) (10 μM, 20 μM and 50 μM), GW501516 (Alexis, Switzerland) (1 nM, 10 nM, 100 nM) in 96-well plates and cell proliferation was assessed by a 3-[4,5-dimethylthiazol-2-yl]-2,5-diphenyl tetrazoliumbromide (MTT) assay at 24 or 48 hrs utilizing a commercially available MTT assay kit (American Type Culture Collection, Catalog #30-1010K, Manassas, Va.). Treatment and control groups were performed in 6 replicate wells. The relative number of viable cells was determined at 24 or 48 hours by incubating the cells with 1 mg/mL of MTT for 4 hours. The live cells utilized MTT resulting in the accumulation of formazan crystals which were then solubilized with acid isopropanol (90% isopropyl alcohol, 2.5% SDS, 0.004 N HCL) for 1 hour. The optical density of the solution was measured at 570 nm.

[2] = test system: primary vaginal smooth muscle cells; assay: Sircol collagen assay (cell culture surface deposited collagen); details: 48 hours of treatment, mean±SD
Procedure: as §1
The Sircol Assay (Biocolor Ltd., UK) is a dye-binding method designed for the analysis of acid and pepsin-soluble collagens. […]
The amount of collagen was determined by SIRCOL collagen assay according to manufacturer's instructions. […] Extracts were incubated with Sirius red dye and absorbance was determined at 555 nm with a spectrophotometer.

[3] = test system: primary vaginal smooth muscle cells; assay: Fastin assay for elastin (tropoelastin and surface deposited elastin production); details: for tropoelastin production normalized to cell number (% of control) / cell culture surface deposited elastin production normalized to cell number (% of control): mean±SD; for cell culture surface deposited elastin production normalized to cell number (% of control): 48 hours of treatment; for vaginal smooth muscle cell elastin production (in words): cell cultures of the vagina from women who have undergone a hysterectomy
Procedure: as §1
SMC from the fourth to sixth passages (5,000 cells per well) were cultured in 96-well or 6-well culture plates (Costar, Cambridge, Mass.), in a total volume of 200 μL or 2 mL DMEM/F-12 with 10% FBS and were grown to near confluence. Cells were incubated with zinc sulfate (10 μM, 20 μM), GW501516 (1 nM, 10 nM, 100 nM) or zinc sulfate with GW 501516 (20 μM with 10 nM) in 96-well plates with serum free DMEM/F-12. Treatment and control groups were performed in 6 replicate wells. Supernatants and cell lysates were collected 24 or 48 hrs after the initiation of treatment. Supernatants and cell lysates were treated with the Fastin Elastin Assay kit (Biocolor Ltd, UK) as recommended by the manufacturer. The Fastin Elastin Assay is a quantitative dye-binding method for the analysis of elastins extracted from biological materials. The dye label employed is 5, 10, 15, 20-tetraphenyl-21, 23-porphine tetra-suffocated (TPPS). The dye reagent binds to the ‘basic’ and ‘non-polar’ amino acid sequences found in mammalian elastins. Recovered dye-bound elastin from each sample and standard was read in a 96-well plate at 513 nm. All measurements were performed in quadruplicate. The measured elastin protein amounts were normalized to corresponding cell numbers to provide a reliable basis of comparison between samples.

Row | SMILES | relative cell number (% of control) ([1]; 1 nM, 24 hrs of culture) | relative cell number (% of control) ([1]; 10 nM, 24 hrs of culture) | relative cell number (% of control) ([1]; 100 nM, 24 hrs of culture) | cell culture surface deposited collagen production normalized to cell number (% of control) ([2]; GW 10 nM) | cell culture surface deposited collagen production normalized to cell number (% of control) ([2]; GW 100 nM) | tropoelastin production normalized to cell number (% of control) ([3]; 1 nM, 24 hrs of culture) | tropoelastin production normalized to cell number (% of control) ([3]; 10 nM, 24 hrs of culture) | tropoelastin production normalized to cell number (% of control) ([3]; 100 nm, 24 hrs of culture) | cell culture surface deposited elastin production normalized to cell number (% of control) ([3]; GW 10 nM) | cell culture surface deposited elastin production normalized to cell number (% of control) ([3]; GW 100 nM) | vaginal smooth muscle cell elastin production (in words) [3] | relative cell number (% of control) ([1]; 10 μM, 48 hrs of culture) | relative cell number (% of control) ([1]; 20 μM, 48 hrs of culture) | relative cell number (% of control) ([1]; 50 μM, 48 hrs of culture) | cell culture surface deposited collagen production normalized to cell number (% of control) ([2]; zinc sulfate 10 μM) | cell culture surface deposited collagen production normalized to cell number (% of control) ([2]; zinc sulfate 20 μM) | tropoelastin production normalized to cell number (% of control) ([3]; 10 μM, 48 hrs of culture) | tropoelastin production normalized to cell number (% of control) ([3]; 20 μM, 48 hrs of culture) | cell culture surface deposited elastin production normalized to cell number (% of control) ([3]; zinc sulfate 10 μM) | cell culture surface deposited elastin production normalized to cell number (% of control) ([3]; zinc sulfate 20 μM)
1 | Cc1cc(SCc2sc(-c3ccc(C(F)(F)F)cc3)nc2C)ccc1OCC(=O)O [GW501516, 2-[2-methyl-4-([4-methyl-2-[4-(trifluoromethyl)phenyl)-1,3-thiazol-5-yl]methylsulfanyl]phenoxy]acetic acid] | 98.9±10.3 % of control | 95.9±6.5 % of control | 87.0±10.6 % of control | 151.0±22 % of control | 118.2±19 % of control | 106.6±16 % of control | 120.5±16 % of control | 146.7±11 % of control | 108.2±6 % of control | 112.2±16 % of control | significantly increase |  |  |  |  |  |  |  |  | 
2 | O.O.O.O.O.O.O.O=S(=O)([O-])[O-].[Zn+2] [zinc sulfate, zinc sulfate heptahydrate] |  |  |  |  |  |  |  |  |  |  | significantly increased | 94.7±4.6 % of control | 90.4±5.5 % of control | 43.3±30.0 % of control | 139.3±49 % of control | 129.6±27 % of control | 113.3±11 % of control | 117±8.9 % of control | 114.7±6 % of control | 118.0±25 % of control
